84 compounds from the RepoRT retention time repository can be followed below.

SMILES strings stand for the structures.

The series is described as follows: HILIC, Waters ACQUITY UPLC BEH Amide, 100 × 2.1 mm, 1.7 µm; A: water + 0.125% formic acid + 10 mM ammonium formate; B: 5% water + 95% acetonitrile + 0.125% formic acid + 10 mM ammonium formate; gradient (min/%B) 0/100 2/100 7.7/70 9.5/40 10.25/30 12.75/100 17/100. The conditions noted are these: stereoisomer not certain.
As for `Oc1ccc(C2COc3cc(O)ccc3C2)cc1` (centres undefined) [Equol], the LC retention time was found to be 1.19 min.
Then `Cc1cc2nc3c(=O)[nH]c(=O)nc-3n(CC(O)C(O)C(O)CO)c2cc1C` (centres undefined) [Riboflavin], with 6 min; and `CC(C)CC1NC(=O)C2CCCN2C1=O` (centres undefined) [Cyclo(Leu-Pro)], with 1.29 min; and `O=CC(O)C(O)C(O)C(O)CO` (centres undefined) [Glucose], with 1.84 min.
For `CCC(=O)C(CC(C)N(C)C)(c1ccccc1)c1ccccc1` (centres undefined) [Methadone] the value was 2 min.
Then `CN1CCN(C2=Nc3cc(F)ccc3Cc3ccccc32)CC1` [Fluperlapine], with 2.3 min; and `COc1cc(C=O)ccc1O` [Vanillin], with 1.15 min; and `NC1C(O)OC(CO)C(O)C1O` (centres undefined) [Galactosamine], with 8.44 min.
`O=c1cc[nH]c(=O)[nH]1` [Uracil]: the LC retention time worked out at 2.4 min.
As for `Nc1ncnc2c1ncn2C1OC(CO)C(O)C1O` (centres undefined) [Adenosine], the LC retention time came to 4.77 min.
Then `CC1=C2C3OC(=O)C(C)C3CCC2(C)C=CC1=O` (stereo not drawn) [alpha-Santonin], with 1.07 min.
Then `NC1C(O)OC(COP(=O)(O)O)C(O)C1O` (centres undefined) [Glucosamine-6-phosphate], with 10.1 min; and `CC(C)CC(N)C(=O)O` (centres undefined) [Leucine], with 7.08 min; and `CN=C(N)NCCCC(N)C(=O)O` (centres undefined) [Targinine], with 9.22 min.
Then `CCCC=CC=O` [2-Hexenal], with 1.39 min; and `COc1ccc(NC=O)c(C(=O)CCNC(C)=O)c1` [N-gamma-Acetyl-N-2-formyl-5-methoxykynurenamine], with 1.32 min; and `CCCCC(N)C(=O)O` (centres undefined) [Norleucine], with 6.99 min.
For the compound `O=c1ccn(C2OC(CO)C(O)C2O)c(=O)[nH]1` (centres undefined) [Uridine], the LC retention time was determined as 4.72 min.
Then `CC(=O)Nc1ccc(O)cc1` [Acetaminophen], with 1.37 min.
Turning to `NC(=O)c1[nH]cnc1N` [5-Aminoimidazole-4-carboxamide], the LC retention time was 4.18 min.
Turning to `COC1C(CO)OC(n2cnc3c(=O)[nH]c(N)nc32)C1O` (centres undefined) [3'-O-Methylguanosine], the LC retention time was 5.8 min.
For `Clc1cccc(Cl)c1NC1=NCCN1` [Clonidine] the value was 2.85 min; for `CN1C(C(=O)Nc2ccccn2)=C(O)c2ccccc2S1(=O)=O` [Piroxicam], 1.02 min; for `NCC(=O)c1ccccc1` [2-Aminoacetophenone], 1.08 min.
Then `CC1(C)CC1C(=O)NC(=CCCCCSCC(N)C(=O)O)C(=O)O` (centres undefined) [Cilastatin], with 7.63 min; and `NC(=O)NCCCC[C@H](N)C(=O)O` [L-Homocitrulline], with 8.73 min.
For `Cc1cn(C2OC(CO)C(O)C2O)c(=O)nc1N` (centres undefined) [5-Methylcytidine] the value was 6.39 min; for `CC1CN(CCCn2c3ccccc3c3ccccc32)CC(C)N1` (centres undefined) [Rimcazole], 2.87 min.
Consider `OCC1OC(OC2C(CO)OC(O)C(O)C2O)C(O)C(O)C1O` (centres undefined) [Maltose], for which the LC retention time came out at 8.75 min.
Regarding `NC(N)=NCCCC(N)C(=O)NC(CO)C(=O)O` (centres undefined) [Arg-Ser], the LC retention time was determined as 9.9 min.
Then `Cn1c[n+](C2OC(CO)C(O)C2O)c2nc(N)[nH]c(=O)c21` (centres undefined) [7-Methylguanosine], with 7.34 min; and `O=c1ccc2cccc(O)c2[nH]1` [2,8-Quinolinediol], with 1.53 min.
Then `CCCCCCCCCCCCCCCC(=O)OC(CC(=O)[O-])C[N+](C)(C)C` (centres undefined) [Palmitoylcarnitine cation], with 3.23 min; and `CCCCCC=CCC=CCC=CCC=CCCCC(=O)Nc1ccc(O)cc1` [AM 404], with 0.97 min.
Then `CC(=O)CC(c1ccccc1)c1c(O)c2ccccc2oc1=O` (centres undefined) [Warfarin], with 0.99 min.
Take `Nc1nc2nc[nH]c2c(=O)[nH]1` [Guanine]: the LC retention time was 6.4 min.
For `O=[N+]([O-])c1cc[n+]([O-])c2ccccc12` [4-Nitroquinoline-N-oxide] the value was 1.14 min; for `CCOC(=O)C1=C(COCCN)NC(C)=C(C(=O)OC)C1c1ccccc1Cl` (centres undefined) [Amlodipine], 4.24 min.
Then `COc1ccc(CCN)cc1OC` [Homoveratrylamine], with 4.78 min; and `c1ccc2c(-c3nccs3)c[nH]c2c1` [Camalexin], with 1.05 min; and `COc1cc(-c2ccc(=O)[nH]n2)ccc1OC(F)F` [Zardaverine], with 1.19 min.
For `C[N+](C)(C)CCCC(=O)O` [4-Trimethylammoniobutanoic acid] the value was 7.66 min.
As for `O=C(O)c1ccccc1C(=O)O` [Phthalic acid], the LC retention time is 1.15 min.
As for `Cc1ncc([N+](=O)[O-])n1CC(C)O` (centres undefined) [Secnidazole], the LC retention time is 1.12 min.
Take `CC(C)CC(N(C)C)C1(c2ccc(Cl)cc2)CCC1` (centres undefined) [Sibutramine]: the LC retention time was found to be 1.86 min.
For `CC1NCCOC1c1ccccc1` (centres undefined) [Phenmetrazine] the value was 4.04 min; for `Cc1cccc(C)c1NC(=O)C(C)N` (centres undefined) [Tocainide], 4.97 min; for `CC(=O)OCC1OC(Oc2c(-c3ccc(O)c(O)c3)oc3cc(O)cc(O)c3c2=O)C(O)C(O)C1O` (stereo not drawn) [Quercetin-3-O-beta-glucopyranosyl-6'-acetate], 4.61 min.
For the compound `CN1CCN(c2nc3cc(C(F)(F)F)ccc3n3cccc23)CC1`, the LC retention time is 2.21 min.
For `CC(C)CC(NC(=O)C(O)C(N)Cc1ccccc1)C(=O)O` (centres undefined) [Bestatin] the value was 5.98 min.
Regarding `OCCOCCN1CCN(C2=Nc3ccccc3Sc3ccccc32)CC1` [Quetiapine], the LC retention time stood at 2.54 min.
For `O=c1ccc2ccccc2[nH]1` [2-Hydroxyquinoline] the value was 1.51 min.
Then `COC1C=COC2(C)Oc3c(C)c(O)c4c(O)c(c(C=NN5CCN(C6CCCC6)CC5)c(O)c4c3C2=O)NC(=O)C(C)=CC=CC(C)C(O)C(C)C(O)C(C)C(OC(C)=O)C1C` (centres undefined) [Rifapentine], with 1.81 min.
Then `NCCc1ccccc1` [Phenethylamine], with 4.87 min; and `O=C(O)C1NCCC1O` (centres undefined) [3-Hydroxyproline], with 8.17 min; and `C[N+](C)(C)CCOP(=O)([O-])OCC(O)CO` (centres undefined) [Glycerophosphocholine], with 8.67 min.
As to `CC12CCC(=O)C=C1CCC1C2CCC2(C)C(O)CCC12` (centres undefined) [Testosterone], the LC retention time turned out to be 1.05 min.
For `C[S+](CCC(N)C(=O)[O-])CC1OC(n2cnc3c(N)ncnc32)C(O)C1O` (centres undefined) [S-Adenosyl-methionine] the value was 9.7 min; for `NC(Cc1c[nH]c2ccccc12)C(=O)O` (centres undefined) [Tryptophan], 6.92 min.
Then `O=C1Nc2ccc(Cl)cc2C(C#CC2CC2)(C(F)(F)F)O1` (centres undefined) [Efavirenz], with 0.98 min; and `CCCNC1CCc2nc(N)sc2C1` (centres undefined) [Pramipexole], with 5.7 min; and `COc1ccc2[nH]cc(C3=CCNCC3)c2c1`, with 4.61 min.
Then `NC(N)=NCCCC(N)C(=O)O` (centres undefined) [Arginine], with 9.53 min.
`Nc1ccc(O)cc1` [4-Aminophenol]: the LC retention time was found to be 1.34 min.
For `CC(N)Cc1ccccc1` (centres undefined) [Amphetamine] the value was 4.6 min.
Regarding `O=C(O)c1ccnc2ccccc12` [4-Quinolinecarboxylic acid], the LC retention time came to 4.58 min.
For `CCNC(C)Cc1ccc2c(c1)OCO2` (centres undefined) [3,4-Methylenedioxyethamphetamine] the value was 2.94 min.
For `O=C(O)CNC(=O)Cc1ccccc1` [Phenylacetylglycine] the value was 2.88 min; for `NC(CCSCC(N)C(=O)O)C(=O)O` (centres undefined) [Cystathionine], 9.91 min.
As for `Cc1nnc2n1-c1ccc(Cl)cc1C(c1ccccc1Cl)=NC2` [Triazolam], the LC retention time turned out to be 1.3 min.
For `NCCCC(=O)O` [gamma-Aminobutyric Acid] the value was 7.86 min; for `C=CC1=C(C(=O)O)N2C(=O)C(NC(=O)C(=NOCC(=O)O)c3csc(N)n3)C2SC1` (centres undefined) [Cefixime], 7.79 min.
Consider `OC1CCCCC1N1CCC(c2ccccc2)CC1` (centres undefined) [Vesamicol], for which the LC retention time is 2.65 min.
For `CC(C)=CCCC(C)O` (centres undefined) [6-Methyl-5-hepten-2-ol] the value was 7.3 min; for `O=C(O)C1CCCN1` (centres undefined) [Proline], 7.83 min; for `CNC(=C[N+](=O)[O-])NCCSCc1csc(CN(C)C)n1` [Nizatidine], 4.65 min.
With `CN1C(=O)COc2c(C(=O)NC3CN4CCC3CC4)cc(Cl)cc21` (centres undefined) [Azasetron], the LC retention time amounted to 4.66 min.
Then `NCCP(=O)(O)O` [2-Aminoethylphosphonic acid], with 9.39 min; and `CC12CCC3c4ccc(O)cc4CCC3C1CCC2=O` (centres undefined) [1,3,5(10)-Estratrien-3-ol-17-one], with 1.01 min; and `Nc1ccccc1S(=O)(=O)O` [Orthanilic acid], with 2.52 min.
For `Cc1cn(C2C=CC(CO)O2)c(=O)[nH]c1=O` (centres undefined) [Stavudine] the value was 1.62 min; for `O=C(CCCN1CC=C(n2c(=O)[nH]c3ccccc32)CC1)c1ccc(F)cc1` [Droperidol], 3.48 min; for `CCc1c2c(nc3ccc(OC(=O)N4CCC(N5CCCCC5)CC4)cc13)-c1cc3c(c(=O)n1C2)COC(=O)C3(O)CC` (centres undefined) [Irinotecan], 5.03 min.
For `O=C1C(CCC(O)c2ccc(F)cc2)C(c2ccc(O)cc2)N1c1ccc(F)cc1` (centres undefined) [Ezetimibe] the value was 1.03 min.
